Assay [1] has as its system E. coli S30 Extract System, firefly luciferase synthesis. Put plainly: Cell-free translation inhibition assay. The following applies: for inhibition of protein synthesis in vitro (firefly luciferase): 0.4 μM, E. coli S30 extract; for inhibitory effect on translation relative to apramycin (1): equivalent concentrations (0.4 μM). Type of assay: biochemical. On the procedure: The inhibitory effects of the compounds under investigation on in vitro firefly luciferase synthesis were evaluated using the E. coli S30 Extract System for Linear Templates (Promega, Madison, WI, USA), as previously described. The working concentration for all tested compounds in the in vitro translation reaction was 0.4 μM. As all compounds were diluted in water, it was used as the negative control.

A further assay deals with E. coli JW5503 KanR. The assay can be described thus: MIC against transformant carrying APH(3′)-II. Type of assay: cell-based. The following applies: Escherichia coli, JW5503KANR. As to the method:
(§1) The determination of the MIC values was performed on five strains from the working collection of MSU. E. coli JW5503 [25], which lacked a kanamycin resistance cassette that had been removed as per the method outlined in [26], and a strain derived from this strain through in vitro selection with kanamycin. […] Strains containing AG-modifying enzymes were obtained through the transformation of E. coli JW5503 with plasmids that carried cassettes of resistance, namely pCRISPomyces-2–AAC(3)-IV (Addgene #61737), pdualrep2–APH(3′)-II [27] and pt67–ANT(3″). The MIC determination was performed as described for JW5503 in [19].

For the next assay, the system named is K. pneumoniae APEX-5. Put plainly: MIC, MDR clinical isolate. Particulars: Klebsiella pneumoniae, APEX5; K. pneumoniae APEX-5, MDR clinical isolate (NDM-16); read-out: MIC. Type of assay: cell-based. An excerpt: (§2) The microbial strains used in this study were obtained from the collection of the Gause Institute of New Antibiotics. The control strains included in the analysis were S. aureus ATCC 29213, E. coli ATCC 25922, P. aeruginosa ATCC 27853, M. smegmatis ATCC 607. Clinical isolates E. coli MAR17-1350, K. pneumoniae APEX-5, K. pneumoniae MAR14-3395, and K. pneumoniae MAR18-1752 with multidrug resistance, including resistance to aminoglycosides were kindly provided by the Research Institute of Antimicrobial Chemotherapy (RIAC) of the Smolensk State Medical University, Smolensk. The microbial cultures were stored at −75 °C in trypticase soy broth (Becton, Dickinson, France) containing 10–15% glycerol. Storage was carried out in accordance with CLSI guidelines. Prior to experimentation, the bacterial strains were revived from cryopreservation by inoculating them onto trypticase soy agar (Becton, Dickinson, France) and incubating at (36 ± 1) °C for 16–24 h. Individual morphologically homogeneous colonies were then suspended in sterile physiological saline, and the turbidity of the suspension was adjusted to 0.5 McFarland units using a DEN-1 spectrophotometer (Biosan, Riga, Latvia), which corresponds to a concentration of 1.5 × 10^8 CFU/mL.
(§3) The samples were dissolved in sterile distilled water, depending on the physicochemical properties of the compounds under investigation, to a concentration of 10,000 µg/mL. Working solutions were then prepared by serial dilution, resulting in concentrations ranging from 64 µg/mL to 0.125 µg/mL.
(§4) Activity was evaluated by determining the minimum inhibitory concentration (MIC) values using the microdilution method in Mueller–Hinton Broth (Beckton and Dickinson, Le Pont-de-Claix, France), in accordance with the standard procedure for assessing the antimicrobial susceptibility of microorganisms.
(§5) The analysis was conducted in 96-well microtiter plates (Medpolymer, Saint Petersburg, Russia). The bacterial inoculum was introduced within 15 min of preparation. MIC values were determined after incubation for 15–18 h at (36 ± 1) °C. Microbial growth in the presence of the tested compounds was compared to the growth control (without exposure to the test samples). The MIC was defined as the lowest concentration at which visible microbial growth was inhibited.
(§6) To ensure the accuracy of the results, the control antibiotics kanamycin A, gentamycin, and tobramycin (Abcr GmbH, Karlsruhe, Germany) were included, along with standard reference strains: E. coli ATCC 25922. The MIC values for kanamycin A were determined as follows: E. coli ATCC 25922—1–4 µg/mL [22]. For gentamycin, the MIC values were E. coli ATCC 25922–0.25–1 µg/mL [23]. For tobramycin, the MIC values were E. coli ATCC 25922–0.25–1 µg/mL [23]. The MIC values of the reference strains were required to fall within the acceptable ranges specified in [24], provided that standard assay conditions were maintained.

The subject of the next assay is K. pneumoniae MAR18-1752. The assay can be described thus: MIC, MDR clinical isolate. The assay is classed as cell-based. Particulars: Klebsiella pneumoniae, MAR181752; K. pneumoniae MAR18-1752, MDR clinical isolate (NDM-1); read-out: MIC.
Source text: as §2, §3, §4, §5, §6

For another assay, the system named is K. pneumoniae MAR14-3395. Put plainly: MIC, MDR clinical isolate. Particulars: Klebsiella pneumoniae, MAR143395; K. pneumoniae MAR14-3395, MDR clinical isolate (NDM-1 + OXA-244); read-out: MIC. The assay is classed as cell-based.
Source text: as §2, §3, §4, §5, §6

The next assay concerns E. coli MAR17-1350. Put plainly: MIC, MDR clinical isolate. Type of assay: cell-based. Particulars: Escherichia coli, MAR171350; E. coli MAR17-1350, MDR clinical isolate (NDM-5); read-out: MIC.
Source text: as §2, §3, §4, §5, §6

The subject of a further assay is E. coli JW5503 kanS. The assay can be described thus: MIC against E. coli JW5503 parent strain. The assay is classed as cell-based. The following applies: Escherichia coli, JW5503KANS. On the procedure:
as §1

The next assay has as its system S. aureus ATCC 29213. Put plainly: MIC, broth microdilution. The assay is classed as cell-based. The following applies: Staphylococcus aureus, ATCC29213, Table 1.
Source text: as §2, §3, §4, §5, §6
(In broth dilution the organism is exposed to a series of concentrations in liquid medium.)

A further assay relates to P. aeruginosa ATCC 27853. Put plainly: MIC, broth microdilution. The assay is classed as cell-based. Particulars: Pseudomonas aeruginosa, ATCC27853, Table 1.
Source text: as §2, §3, §4, §5, §6

Assay [2] concerns E. coli JW5503 with pJC27 β-galactosidase codon 537 reporter. The assay can be described thus: Translation accuracy using β-galactosidase reporters. Particulars: 0.1 μL of 50 mg/mL, 37 °C, 18 h, codon 537 GAC/GGG reporters. The assay is classed as cell-based. On the procedure: To evaluate translation accuracy in the presence of antibiotics, E. coli JW5503 (kanamycin resistance cassette removed as per) was transformed with pJC27 plasmids. […] The synthesis of active β-galactosidase depends on translation errors occurring (when codons GAC and GGG are read as GAA). Petri dishes (9 cm) containing 20 mL of solid LB agar (1.5%), supplemented with chloramphenicol (11.3 μg/mL) and X-Gal (80 μg/mL), were prepared. A secondary soft-agar layer comprising 3.5 mL of LB agar (0.6%) supplemented with 11.3 μg/mL chloramphenicol and 0.5 mL of liquid culture (A600~1.0) was added and allowed to solidify. Antibiotics were applied to the plates in 0.1 μL aliquots at a concentration of 50 mg/mL for tobramycin, streptomycin, kanamycin, and apramycin, and for 5a, 5b, 8a, and 8b. The plates were then incubated at 37 °C for 18 h. […] The results were documented using a Samsung Galaxy Tab A71 camera.

The next assay deals with E. coli ATCC 25922. The assay can be described thus: MIC, broth microdilution. Type of assay: cell-based, Escherichia coli. The following applies: Escherichia coli, ATCC25922, Table 1, read-out: MIC.
Source text: as §2, §3, §4, §5, §6

Usually MIC stands for the lowest concentration that inhibits growth of the organism. For the compound `CNC1C(OC2OC(CNCCN)C(N)C(O)C2O)OC2CC(N)C(OC3C(N)CC(N)C(O)C3O)OC2C1O` (stereo not drawn) [Compound 5a, 6″-((2-Aminoethyl-1)-amino)-6″-deoxyapramycin acetate], the “inhibition of protein synthesis in vitro (firefly luciferase)” value (“inhibition of protein synthesis in vitro” below) in assay [1] is listed as “inhibited protein synthesis in vitro”. Further, the “inhibitory effect on translation relative to apramycin (1)” value in [1] is “approximately one order of magnitude weaker”. In addition, the MIC against E. coli JW5503 KanR worked out at 16 µg/mL; in the assay on K. pneumoniae APEX-5, 4 µg/mL; in the assay on K. pneumoniae MAR18-1752 it was 4 µg/mL; in the assay on K. pneumoniae MAR14-3395, 4 µg/mL; with E. coli MAR17-1350 it was 4 µg/mL; in the assay on E. coli JW5503 kanS, 16 µg/mL. In addition, the figures for the minimum inhibitory concentration (MIC) in the assay on S. aureus ATCC 29213, in the assay on P. aeruginosa ATCC 27853 and with E. coli ATCC 25922 were 2 µg/mL, 8 µg/mL and 2 µg/mL, respectively. In assay [2], the “induction of translation errors (blue staining at edge of inhibition zone)” value is “caused blue staining of the bacterial lawn”.
On to `CNC1C(OC2OC(CNCCCN)C(N)C(O)C2O)OC2CC(N)C(OC3C(N)CC(N)C(O)C3O)OC2C1O` (stereo not drawn) [Compound 5b, 6″-((3-Aminopropyl-1)-amino)-6″-deoxyapramycin acetate], for which the “inhibition of protein synthesis in vitro” value in assay [1] is “inhibited protein synthesis in vitro”. Also, the “inhibitory effect on translation relative to apramycin (1)” value in assay [1] is given as “approximately one order of magnitude weaker”. The MIC came to 32 µg/mL against E. coli JW5503 KanR; 8 µg/mL with K. pneumoniae APEX-5; 8 µg/mL with K. pneumoniae MAR18-1752; 8 µg/mL in the assay on K. pneumoniae MAR14-3395; 8 µg/mL in the assay with E. coli MAR17-1350; 32 µg/mL with E. coli JW5503 kanS. Further, the MIC in the assay on S. aureus ATCC 29213 was 2 µg/mL; in the assay on P. aeruginosa ATCC 27853 it was 16 µg/mL; with E. coli ATCC 25922, 2 µg/mL. The “induction of translation errors (blue staining at edge of inhibition zone)” value in assay [2] is given as “caused blue staining of the bacterial lawn”.
Turning to `CNC1C(OC2OC(CNCCNC(=N)N)C(N)C(O)C2O)OC2CC(N)C(OC3C(N)CC(N)C(O)C3O)OC2C1O` (stereo not drawn) [Compound 8a, 6″-((2-Guanidinoethyl-1)-amino)-6″-deoxyapramycin acetate], the “inhibition of protein synthesis in vitro” value in [1] was “inhibited protein synthesis in vitro”. Also, the “inhibitory effect on translation relative to apramycin (1)” value in assay [1] is on record as “approximately one order of magnitude weaker”. Further, the MIC with E. coli JW5503 KanR turned out to be 8 µg/mL; in the assay with K. pneumoniae APEX-5 it was 1 µg/mL; with K. pneumoniae MAR18-1752, 2 µg/mL; in the assay on K. pneumoniae MAR14-3395, 2 µg/mL; with E. coli MAR17-1350 it was 4 µg/mL; with E. coli JW5503 kanS, 8 µg/mL. In addition, the MIC with S. aureus ATCC 29213 is 0.5 µg/mL; with P. aeruginosa ATCC 27853, 8 µg/mL; with E. coli ATCC 25922, 1 µg/mL. In assay [2], the “induction of translation errors (blue staining at edge of inhibition zone)” value is recorded as “caused blue staining of the bacterial lawn”.
With `CNC1C(OC2OC(CNCCCNC(=N)N)C(N)C(O)C2O)OC2CC(N)C(OC3C(N)CC(N)C(O)C3O)OC2C1O` (stereo not drawn) [Compound 8b, 6″-((3-Guanidinopropyl-1)-amino)-6″-deoxyapramycin acetate], the “inhibition of protein synthesis in vitro” value in assay [1] is reported as “inhibited protein synthesis in vitro”. Also, the “inhibitory effect on translation relative to apramycin (1)” value in assay [1] was “approximately one order of magnitude weaker”. The MIC with E. coli JW5503 KanR is 16 µg/mL; in the assay on K. pneumoniae APEX-5, 2 µg/mL; in the assay on K. pneumoniae MAR18-1752 it was 2 µg/mL; with K. pneumoniae MAR14-3395, 4 µg/mL; in the assay on E. coli MAR17-1350 it was 4 µg/mL; with E. coli JW5503 kanS it was 16 µg/mL. Further, the MIC against S. aureus ATCC 29213 came to 0.5 µg/mL; against P. aeruginosa ATCC 27853, 8 µg/mL; in the assay on E. coli ATCC 25922, 1 µg/mL. Further, the “induction of translation errors (blue staining at edge of inhibition zone)” value in assay [2] is “caused blue staining of the bacterial lawn”.
